Tests used:
Design in all cases: scale not given here
[1] = system: ORYSAT Rice, Tebonnet; assay: Preemergence herbicidal evaluation, ORYSAT; type: in vivo, Oryza sativa, (L.); settings: rate 0.125 kg/ha; rated four to five weeks after treatment
In short: (§1)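 Seeds mixed with potting soil in cups, then sprayed preemergence with aqueous acetone test solution at about 0.013 to 0.800 kg per hectare equivalent. Cups kept under standard greenhouse care; plants rated on a visual scale four to five weeks after treatment.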

[2] = system: GLXMAW Soybean, Williams; assay: Preemergence herbicidal evaluation, GLXMAW; type: in vivo, Glycine max, (L.) Merr. cv Williams; settings: rated four to five weeks after treatment
In short: as §1

[3] = system: GALAP Galium; assay: Preemergence herbicidal evaluation, GALAP; type: in vivo, Galium aparine; settings: rated four to five weeks after treatment
In short: as §1

[4] = system: IPOHE Morningglory, Ivyleaf; assay: Postemergence herbicidal evaluation, IPOHE; type: in vivo, Ipomoea hederacea, (L.) Jacq.; settings: rated two - three weeks after treatment
In short: (§2)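 Ratings from greenhouse plants scored about two to three weeks after a foliar spray; data from multiple tests averaged. Seedlings about two weeks old received roughly 0.006–0.400 kg/ha active compound in 80/20 acetone/water with 1.0% methylated seed oil.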

[5] = system: ZEAMX Corn, Field; assay: Preemergence herbicidal evaluation, ZEAMX; type: in vivo, Zea mays, L. (Sammel-Bezeichnung); settings: rated four to five weeks after treatment
In short: as §1

[6] = system: ABUTH Velvetleaf; assay: Preemergence herbicidal evaluation, ABUTH; type: in vivo, Abutilon theophrasti, Medic.; settings: rated four to five weeks after treatment
In short: as §1

[7] = system: TRZAWR Wheat, Winter, cv Riband; assay: Postemergence herbicidal evaluation, TRZAWR; type: in vivo, Triticum aestivum; settings: rated two - three weeks after treatment
In short: as §2

[8] = system: CASOB Sicklepod; assay: Preemergence herbicidal evaluation, CASOB; type: in vivo, Cassia obtusifolia, L.; settings: rated four to five weeks after treatment
In short: as §1

[9] = system: ECHOG Barnyardgrass; assay: Postemergence herbicidal evaluation, ECHOG; type: in vivo, Echinochloa crus-galli, (L.) Beau; settings: rated two - three weeks after treatment
In short: as §2

[10] = system: ABUTH Velvetleaf; assay: Postemergence herbicidal evaluation, ABUTH; type: in vivo, Abutilon theophrasti, Medic.; settings: rated two - three weeks after treatment
In short: as §2

[11] = system: SETVI Foxtail, Green; assay: Postemergence herbicidal evaluation, SETVI; type: in vivo, Setaria viridis, (L.) Beau; settings: rated two - three weeks after treatment
In short: as §2

[12] = system: CHEAL Lambsquarters, Common; assay: Postemergence herbicidal evaluation, CHEAL; type: in vivo, Chenopodium album, L.; settings: rated two - three weeks after treatment
In short: as §2

[13] = system: AMBEL Ragweed, Common; assay: Postemergence herbicidal evaluation, AMBEL; type: in vivo, Ambrosia artemisifolia, L.; settings: rated two - three weeks after treatment
In short: as §2

COC(=O)COc1ccc(-n2nnc3cc(F)c(-n4c(=O)cc(C(F)(F)F)n(C)c4=O)cc32)cc1 [Example 45] was tested. Which “Preemergence herbicidal rating, ORYSAT” value [1] did it give?
The value was 5.0.

What about the “Preemergence herbicidal rating, GLXMAW” value ([2]; rate 0.016 kg/ha) of the same molecule?
The value was 0.0.

And the “Preemergence herbicidal rating, GLXMAW” value ([2]; rate 0.032 kg/ha)?
Its value is 0.0.

And the “Preemergence herbicidal rating, GLXMAW” value ([2]; rate 0.062 kg/ha)?
The value was 0.0.

And the “Preemergence herbicidal rating, GLXMAW” value ([2]; rate 0.125 kg/ha)?
Its value is 1.0.

What about the “Preemergence herbicidal rating, GALAP” value ([3]; rate 0.016 kg/ha) of the same molecule?
Its value is 0.0.

And the “Preemergence herbicidal rating, GALAP” value ([3]; rate 0.032 kg/ha)?
The value was 0.0.

And the “Preemergence herbicidal rating, GALAP” value ([3]; rate 0.062 kg/ha)?
Its value is 4.0.

What about the “Preemergence herbicidal rating, GALAP” value ([3]; rate 0.125 kg/ha) of the same molecule?
The value was 4.0.

What about the “Postemergence herbicidal rating IPOHE” value ([4]; rate 0.008 kg/ha) of the same molecule?
The value was 9.0.

What about the “Postemergence herbicidal rating IPOHE” value ([4]; rate 0.016 kg/ha) of the same molecule?
The value was 9.0.

And the “Postemergence herbicidal rating IPOHE” value ([4]; rate 0.032 kg/ha)?
The value was 9.0.

What about the “Postemergence herbicidal rating IPOHE” value ([4]; rate 0.062 kg/ha) of the same molecule?
Its value is 9.0.

And the “Preemergence herbicidal rating, ZEAMX” value ([5]; rate 0.016 kg/ha)?
The value was 0.0.

And the “Preemergence herbicidal rating, ZEAMX” value ([5]; rate 0.032 kg/ha)?
The value was 0.0.

And the “Preemergence herbicidal rating, ZEAMX” value ([5]; rate 0.062 kg/ha)?
The value was 0.0.

And the “Preemergence herbicidal rating, ZEAMX” value ([5]; rate 0.125 kg/ha)?
Its value is 0.0.

And the “Preemergence herbicidal rating, ABUTH” value ([6]; rate 0.016 kg/ha)?
Its value is 0.0.

And the “Preemergence herbicidal rating, ABUTH” value ([6]; rate 0.032 kg/ha)?
The value was 0.0.

What about the “Preemergence herbicidal rating, ABUTH” value ([6]; rate 0.062 kg/ha) of the same molecule?
The value was 4.0.

What about the “Preemergence herbicidal rating, ABUTH” value ([6]; rate 0.125 kg/ha) of the same molecule?
The value was 9.0.

And the “Postemergence herbicidal rating TRZAWR” value ([7]; rate 0.008 kg/ha)?
The value was 4.0.

What about the “Postemergence herbicidal rating TRZAWR” value ([7]; rate 0.016 kg/ha) of the same molecule?
The value was 6.0.

And the “Postemergence herbicidal rating TRZAWR” value ([7]; rate 0.032 kg/ha)?
The value was 6.0.

What about the “Postemergence herbicidal rating TRZAWR” value ([7]; rate 0.062 kg/ha) of the same molecule?
The value was 8.0.

What about the “Preemergence herbicidal rating, CASOB” value ([8]; rate 0.016 kg/ha) of the same molecule?
The value was 0.0.

What about the “Preemergence herbicidal rating, CASOB” value ([8]; rate 0.032 kg/ha) of the same molecule?
Its value is 0.0.

What about the “Preemergence herbicidal rating, CASOB” value ([8]; rate 0.062 kg/ha) of the same molecule?
The value was 0.0.

And the “Postemergence herbicidal rating ECHCG” value ([9]; rate 0.008 kg/ha)?
Its value is 0.0.

What about the “Postemergence herbicidal rating ECHCG” value ([9]; rate 0.016 kg/ha) of the same molecule?
The value was 5.0.

What about the “Postemergence herbicidal rating ECHCG” value ([9]; rate 0.032 kg/ha) of the same molecule?
The value was 8.0.

And the “Postemergence herbicidal rating ECHCG” value ([9]; rate 0.062 kg/ha)?
The value was 9.0.

What about the “Postemergence herbicidal rating ABUTH” value ([10]; rate 0.008 kg/ha) of the same molecule?
Its value is 9.0.

What about the “Postemergence herbicidal rating ABUTH” value ([10]; rate 0.016 kg/ha) of the same molecule?
The value was 9.0.

What about the “Postemergence herbicidal rating ABUTH” value ([10]; rate 0.032 kg/ha) of the same molecule?
Its value is 9.0.

What about the “Postemergence herbicidal rating ABUTH” value ([10]; rate 0.062 kg/ha) of the same molecule?
The value was 9.0.

And the “Postemergence herbicidal rating SETVI” value ([11]; rate 0.008 kg/ha)?
Its value is 3.0.

What about the “Postemergence herbicidal rating SETVI” value ([11]; rate 0.016 kg/ha) of the same molecule?
Its value is 8.0.

What about the “Postemergence herbicidal rating SETVI” value ([11]; rate 0.032 kg/ha) of the same molecule?
The value was 9.0.

What about the “Postemergence herbicidal rating SETVI” value ([11]; rate 0.062 kg/ha) of the same molecule?
Its value is 9.0.

What about the “Postemergence herbicidal rating CHEAL” value ([12]; rate 0.008 kg/ha) of the same molecule?
Its value is 2.0.

What about the “Postemergence herbicidal rating CHEAL” value ([12]; rate 0.016 kg/ha) of the same molecule?
The value was 4.0.

What about the “Postemergence herbicidal rating CHEAL” value ([12]; rate 0.032 kg/ha) of the same molecule?
The value was 7.0.

And the “Postemergence herbicidal rating CHEAL” value ([12]; rate 0.062 kg/ha)?
The value was 7.0.

And the “Postemergence herbicidal rating AMBEL” value ([13]; rate 0.008 kg/ha)?
The value was 2.0.

What about the “Postemergence herbicidal rating AMBEL” value ([13]; rate 0.016 kg/ha) of the same molecule?
Its value is 3.0.

And the “Postemergence herbicidal rating AMBEL” value ([13]; rate 0.032 kg/ha)?
The value was 7.0.

What about the “Postemergence herbicidal rating AMBEL” value ([13]; rate 0.062 kg/ha) of the same molecule?
Its value is 9.0.

— US20020111274A1, “1-alkyl-3-[1-(substituted phenyl) benzotriazol-6-yl] uracils” (BASF Aktiengesellschaft, priority 2000, published 2002)
